Test results reported in ChEMBL document CHEMBL1154903, “Cembranoids from the octocoral Sarcophyton ehrenbergi” (J Nat Prod, 2010).
Activity calls are given as the source filed them. The calls are words filed in the database; no cut-off is given here.

Experiments:
P388 = test: Cytotoxicity against mouse P388 cells by MTT assay; type: functional, cell-based
HT-29 = test: Cytotoxicity against human HT-29 cells by MTT assay; type: functional, cell-based
HEL = test: Cytotoxicity against HEL cells by MTT assay; type: cell-based; conditions: Homo sapiens
Human betaherpesvirus 5 = test: Antiviral activity against human cytomegalovirus infected HEL cells after 7 days by; type: functional, organism-based; conditions: Human betaherpesvirus 5, HEL, 168 h
Salmonella enterica = test: Antibacterial activity against Salmonella enteritidis ATCC 13076 at 250 ug/ml by disk diffusion method; type: functional, organism-based; conditions: Salmonella enterica subsp. enterica serovar Enteritidis

Row | IC50 (Human betaherpesvirus 5) [µM] | Structure (SMILES) | IC50 (P388) [µg/mL] | IC50 (HT-29) [µg/mL] | IC50 (HEL) [µg/mL] | Activity (Salmonella enterica)
1 | 5.8 | COC(=O)/C1=C/CC/C(C)=C/[C@@H]2OCC(C)=C2CC[C@@]2(C)O[C@@H]2CC1 [LOBOPHYNIN C] | > 50 | > 50 | > 50 | inactive
2 | 4.7 | C/C1=C\C=C(\C(C)C)CC[C@@]2(C)O[C@H](C1)C[C@@](C)(O)CC[C@@H]2O [EHRENBEROXIDE B] | > 50 | > 50 | > 50 | inactive
3 | 24.8 | COC(C)(C)/C1=C/C=C(\C)CC[C@@H]2O[C@@]2(C)CC/C=C(/C(=O)O)CC1 [EHRENBEROXIDE A] | > 50 | > 50 | > 50 | inactive
